Experimental data from patent US7951364B2, “CaR receptor as a mediator of migratory cell chemotaxis and/or chemokinesis” (The General Hospital Corporation, priority 2000, dated 2011).

How the values were obtained:
CD14^+ monocytes = test: Transmigration assay (monocyte chemotaxis, transwell); format: cell-based, human; conditions: for Interaction of chemokine with added/elevated Ca^++ on transmigration: chemokine in combination with elevated Ca^++; for Dependence of chemokine-induced chemotaxis of CD14^+ PBMC on extracellular calcium: positive concentration gradient of chemokine; for Stimulation of transmigration: monocytes; for Inhibition of monocyte chemotaxis towards a positive gradient of Ca^++ by pretreatment: Ca^++ at 3 mM
Description: (§1) Preparation of peripheral blood CD14^+ monocytes. Low density cells were isolated from human and mouse peripheral blood using Ficoll-Hypaque (Pharmacia, Piscataway, N.J.). CD14^+ monocytes were purified by sorting on FACSVantage (Becton Dickinson, San Jose, Calif.) based on CD14 expression. Purified cells were incubated in either calcium-free medium (Hanks' Balanced Salt Solution 1×, CellGro, Hermdon. VA) or Iscove's Medium 1×(Mod) (CellGro, Herndon, Va.) which contains 1.5 mM Ca++. […] Cells were incubated for up to 24 hours in 5% CO2 humidified air. Monocytes were then detached from the plate using a cell scraper. All calcium concentrations indicated in the presentation of the data represent the total Ca^++ present in the basal medium plus any added Ca^++.
(§2) Transmigration assays. Transwells (5 μm pore size polycarbonate membrane, 12 mm diameter) (Costar, Corning, N.Y.) were used to assess cell migration using an established methodology (25). The concentration of Ca^++ in IMDM (CellGro, Herndon, Va.) in the upper and lower chambers of the transwell were adjusted according to a checkerboard analysis of chemotaxis. Calcium concentrations varied from 0 mM to 6.5 mM. Purified monocytes (1×10^4) were then placed in the top chamber with 150 μl of IMDM (CellGro, Hemdon, Va.). 500 μl of the medium was added to the bottom of the well and supplemented with varying concentrations of Ca^++ or with Ca^++ plus 10 ng/ml of MCP-1, 100 ng/ml of SDF-1α or 10 ng/ml of MIP-1α (PeproTech, Rocky Hills, N.Y.). Cells were incubated at 37° C. for 3 hours. To study inhibition of chemotaxis, cells were subsequently incubated with wortmannin (1 μM for 20 minutes at 37° C.), herbimycin (1 μM for 20 minutes at 37° C.) or genistein (1 μg/ml for 20 minutes at 37° C.), before their use in transmigration assays. At the end of the experiment, cells were then harvested from the lower chamber and counted using a hemocytometer.

[1] = tested on: monocytes (Mac-1 positive mononuclear cells); test: Biologic activity in vivo: subcutaneous injection, monocyte infiltration at injection site; parameters: species or system C57BL/6 mice; conditions: tissue excised 18 hours later, CaCl2 5.0 mM, NPS R-467 10 μM
Description: Biologic activity of ionic calcium in vivo. C57BL/6 mice (Jackson Laboratories) were injected subcutaneously at a marked, shaved spot on the abdomen with 20 μl of 5 mM CaCl2 or 20 μl of MCP-1 at a concentration of 10 ng/ml, with a combination of MCP-1 and 5 mM CaCl2 or with 10 μM NPS R-467 in PBS. Control mice were injected subcutaneously with 20 μl PBS alone. All subcutaneously injected agents contained less than 0.004 ng/ml of LPS by the limulus assay (Sigma) as previously described (Bleul, C. C., et al., J Exp Med, 1996, 184:1101-1109). Mice were sacrificed by CO2 asphyxiation 18 hours after injection, and injection sites were excised, snap-frozen and 4 μm cryosections were obtained and stained with hematoxylin and eosin. Immunocytochemistry was performed on the frozen sections using alkaline phosphatase-conjugated Mac-1 antibody (Pharmingen) as previously described and assessed by light microscopy (Bleul, C. C., et al., supra).

[2] = tested on: mononuclear cells derived from neonatal CaR −/−, +/− or +/+ mice; test: Transmigration assay with cells from CaR knockout and wild-type mice; format: cell-based, mouse; conditions: CaR −/−, +/− or +/+ cells
Description: as §2
CaR−/− were bred as previously described (Ho, C., et al., Nat Genet 1995, 11:389-94). To produce CaR−/− mice for this study, heterozygote mice were intercrossed. The mice studied were either 129S6/svev or 129S6/svev/Swiss Webster mixed genetic background. […]

CaR [3] = test: CaR surface expression on monocytes after exposure to chemokines; format: cell-based, human; conditions: monocytes after chemokine stimulation; untreated 361+/−25
Description: (§3) Chemokine receptor expression and flow cytometric analysis.
In order to assess whether there was reciprocal regulation of the CaR by chemokine receptors, we evaluated CaR surface expression on cells before and after exposure to the chemokines, SDF-1α or MCP-1. The mean fluorescence intensity of CaR expression was 361+/−25 (mean+/−s.e.m.) units for untreated monocytes and rose to 673+/−59 following MCP-1 stimulation. Monocytic expression of CaR rose to 519+/−48 with SDF-1α a treatment.

human CD34^+ cells = test: In vitro assays of human CD34^+ hematopoietic progenitor cells; format: cell-based; conditions: in the setting of CaR activation
Description: Calcium ions effect Hematopoietic Progenitor Cells. We also assessed the effects of calcium, through its interaction with the calcium sensing receptor (CaR) using in vitro assays of human CD34^+ cells. […] Therefore, calcium participates in maintaining candidate stem cells in a primitive, undifferentiated state. […] This was accompanied by a decrease in the level of LTC-ICs in the bone marrow, but an increase in the level of CFU-Cs, with a converse increase in hematopoietic stem cells in is the peripheral blood.

CCR-2 = test: Chemokine receptor expression on monocytes by flow cytometry: CCR-2; format: cell-based, human; conditions: for Mean fluorescent intensity -CCR-2 Mean +/− s.e.m.: CD14^+ monocytes, agonist 1 μM in the presence of 1.5 mM Ca^++
Description: as §3
Table 1: Exposure of CD14^+ monocytes to Ca^++ enhances CCR2 expression in a dose dependent manner. Monocytes were exposed to varying concentrations of Ca^++ and to the selective CaR activator, NPS R-467 (1 μM), or to NPS S-467 (1 μM) in the presence of 1.5 mM Ca^++. The median fluorescence intensity for CCR2 expression was measured for each Ca^++ concentration and in the presence of NPS R-467 or S-467. Mean values +/−s.e.m. from three independent experiments are shown.

CaR [4] = target: T1, CaR (Homo sapiens, UniProt P41180); test: Cytosolic calcium changes in purified monocytes (Indo-1/AM, flow cytometry); format: cell-based; conditions: for Increase in cytosolic calcium: 1 μM in the presence of 1.5 mM Ca^++; for Stimulation of cytosolic calcium responses: monocytes
T1 construct: endogenous in cells; host or cells: peripheral blood CD14+ monocytes, sorted by FACS
T1 sequence (P41180 20-1078): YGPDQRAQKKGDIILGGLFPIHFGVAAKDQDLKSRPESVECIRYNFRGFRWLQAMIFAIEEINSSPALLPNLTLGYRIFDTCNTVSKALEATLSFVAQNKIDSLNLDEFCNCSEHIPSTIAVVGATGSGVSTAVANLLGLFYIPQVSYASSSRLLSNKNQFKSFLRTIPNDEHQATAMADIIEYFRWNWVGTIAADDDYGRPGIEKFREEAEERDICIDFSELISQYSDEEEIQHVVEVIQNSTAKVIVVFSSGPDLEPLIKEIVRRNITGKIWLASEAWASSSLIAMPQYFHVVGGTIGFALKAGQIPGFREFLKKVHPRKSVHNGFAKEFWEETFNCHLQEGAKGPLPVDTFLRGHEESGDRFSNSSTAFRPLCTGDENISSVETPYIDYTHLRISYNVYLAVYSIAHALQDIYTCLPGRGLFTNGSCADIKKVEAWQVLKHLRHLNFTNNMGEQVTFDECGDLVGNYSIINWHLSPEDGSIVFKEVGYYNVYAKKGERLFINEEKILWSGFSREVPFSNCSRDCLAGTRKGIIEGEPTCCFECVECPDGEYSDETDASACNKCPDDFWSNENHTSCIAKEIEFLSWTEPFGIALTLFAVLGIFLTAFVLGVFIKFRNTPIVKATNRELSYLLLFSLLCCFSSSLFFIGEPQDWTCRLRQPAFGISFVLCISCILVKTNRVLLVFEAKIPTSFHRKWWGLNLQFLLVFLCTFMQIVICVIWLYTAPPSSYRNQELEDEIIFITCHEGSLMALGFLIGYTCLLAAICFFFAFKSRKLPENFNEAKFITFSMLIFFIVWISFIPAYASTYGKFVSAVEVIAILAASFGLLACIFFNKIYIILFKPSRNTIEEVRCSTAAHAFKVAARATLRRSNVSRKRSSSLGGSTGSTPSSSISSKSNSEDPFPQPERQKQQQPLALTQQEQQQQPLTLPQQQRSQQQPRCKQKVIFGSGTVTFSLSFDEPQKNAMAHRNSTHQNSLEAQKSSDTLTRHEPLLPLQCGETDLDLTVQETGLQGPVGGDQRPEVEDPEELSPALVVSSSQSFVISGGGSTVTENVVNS
Description: as §1
Cytosolic calcium changes. Purified monocytes were loaded with Indo-1/AM (Molecular Probes, Eugene, Oreg.). Cells were collected on FACSVantage for 0.30 sec to establish a baseline emission value for Indo-1/AM. […] Data acquisition then continued for up to 5 minutes.

How did the “Interaction of chemokine with added/elevated Ca^++ on transmigration” value (CD14^+ monocytes) turn out when “MCP-1: chemokine (PeproTech), ligand of CCR-2” was run?
The value was “synergistic”.

And the “Dependence of chemokine-induced chemotaxis of CD14^+ PBMC on extracellular calcium” value (“Dependence … on extracellular calcium” for short) (CD14^+ monocytes)?
The value was “dependent upon extracellular calcium”.

And the “Accumulation of mononuclear cells staining positive for Mac-1 at injection site” value [1]?
The value was “Accumulation”.

And the “Chemotaxis of mouse mononuclear cells” value [2]?
Its value is “capable of chemotaxing”.

What about the “Mean fluorescence intensity of CaR expression (mean+/−s.e.m.)” value (CaR [3]) of the same molecule?
Its value is 673+/−59 units.

How did the “Interaction of chemokine with added/elevated Ca^++ on transmigration” value (CD14^+ monocytes) turn out when SDF-1α was run?
The value was “no synergistic effect”.

What about the “Dependence … on extracellular calcium” value (CD14^+ monocytes) of the same molecule?
The value was “induced migration independent of calcium”.

What about the “Mean fluorescence intensity of CaR expression (mean+/−s.e.m.)” value (CaR [3]) of the same molecule?
The value was 519+/−48 units.

And the “Chemotactic responses of primitive hematopoietic cells to SDF-1α” value (human CD34^+ cells)?
The value was “attenuated”.

How did the Stimulation of transmigration (CD14^+ monocytes) turn out when `COc1cccc([C@H](C)NCCCc2ccccc2)c1` [NPS S-467, reference compound] was run?
Its Stimulation of transmigration is “Stimulation”.

What about the “Mean fluorescent intensity -CCR-2 Mean +/− s.e.m.” value (CCR-2) of the same molecule?
Its value is 417 +/− 48.

And the “Increase in cytosolic calcium” value (CaR [4])?
Its value is “Sustained increases”.

What about the “Stimulation of cytosolic calcium responses” value (CaR [4]) of the same molecule?
Its value is “Stimulation”.

Which “Potency of R-467 vs. S-467 in enhancing actions of high Ca^++ (cytosolic calcium, chemotaxis)” value (CD14^+ monocytes) does the source give for `COc1cccc([C@@H](C)NCCCc2ccccc2)c1` [NPS R-467, reference compound] here?
The value was “greater potency”.

And the Stimulation of transmigration (CD14^+ monocytes)?
The Stimulation of transmigration was “Stimulation”.

What about the “Mean fluorescent intensity -CCR-2 Mean +/− s.e.m.” value (CCR-2) of the same molecule?
The value was 460 +/− 52.

What about the “Accumulation of mononuclear cells staining positive for Mac-1 at injection site” value [1] of the same molecule?
The value was “Accumulation”.

And the “Increase in cytosolic calcium” value (CaR [4])?
The value was “Sustained increases”.

What about the “Stimulation of cytosolic calcium responses” value (CaR [4]) of the same molecule?
Its value is “Stimulation”.

Which results are given for `CO[C@H]1[C@@H](OC)C[C@H](C)[C@@H](OC)C2=CC(=O)C=C(NC(=O)/C(C)=C/C=C\[C@H](OC)[C@@H](OC(N)=O)/C(C)=C/[C@@H]1C)C2=O` [herbimycin, reference compound]?
Inhibition of Ca^++-induced monocyte chemotaxis by pretreatment (CD14^+ monocytes): inhibitable; Inhibition of monocyte chemotaxis towards a positive gradient of Ca^++ by pretreatment (CD14^+ monocytes): inhibitable

What does the source list for `NCCCNCCCCNCCCN` [spermine, reference compound]?
Stimulation of transmigration (CD14^+ monocytes): Stimulation; Stimulation of cytosolic calcium responses (CaR [4]): Stimulation

Which “Effect on the Ca^++-mediated upregulation of CCR-2” value (CCR-2; inhibition of new protein synthesis) does the source give for `C[C@@H]1C[C@@H]([C@H](O)CC2CC(=O)NC(=O)C2)C(=O)[C@@H](C)C1` [cyclohexamide, reference compound] here?
The value was “no effect”.

Which “Inhibition of Ca^++-induced monocyte chemotaxis by pretreatment” value (CD14^+ monocytes) does the source give for `O=c1c(-c2ccc(O)cc2)coc2cc(O)cc(O)c12` [genistein, reference compound] here?
Its value is “inhibitable”.

And the “Inhibition of monocyte chemotaxis towards a positive gradient of Ca^++ by pretreatment” value (CD14^+ monocytes)?
The value was “inhibitable”.

B1: MIP-1α: chemokine (PeproTech) (protein, UniProt P10147 24-92, looked up)
C-C motif chemokine 3: SLAADTPTACCFSYTSRQIPQNFIADYFETSSQCSKPGVIFLTKRSRQVCADPSEEWVQKYVSDLELSA
For B1, which “Interaction of chemokine with added/elevated Ca^++ on transmigration” value (CD14^+ monocytes) is on record?
The value was “no synergistic effect”.

And the “Dependence … on extracellular calcium” value (CD14^+ monocytes)?
The value was “induced migration independent of calcium”.
